Source: patent US5668265A, “Bi-directional oligonucleotides that bind thrombin” (Becton Dickinson and Company, priority 1996, dated 1997)

Assays:
human α thrombin = assay: Competitive binding assay on BIAcore (SPR) against immobilized consensus aptamer; conditions: for Kd: 80 nM human α thrombin, 25° C., pH 7.4, competition with immobilized consensus aptamer, read-out: Apparent Kd
Experimental: Competitive binding assays were used to determine the thrombin binding affinity of the various bi-directional oligonucleotides relative to the affinity of the known thrombin aptamer ^5' GGTTGGTGTGGTTGG^3' (SEQ ID NO:4) (hereafter called the "consensus" aptamer; Bock, L. C. et al, Nature 355, 564 (1992)). The assays were performed on a BIAcore™ biosensor instrument (Pharmacia Biosensor, Uppsala Sweden) by means of Surface Plasmon Resonance (SPR) detection of thrombin bound to consensus aptamer immobilized as described in U.S. patent application Ser. No. 0802,383, now abandoned, filed Aug. 5, 1993 incorporated herein by reference. Competition experiments were conducted at 25° C. by pre-incubating 80 nM human α thrombin for 30 minutes with various concentrations of the bi-directional oligonucleotide to be measured, in a buffer composed of 20 mM Tris-Acetate, 140 mM NaCl, 5 mM KCl, 1 mM CaCl2, 1 mM MgCl2 (pH 7.4). This solution was then passed over the surface containing immobilized consensus aptamer at a flow rate of 3 μL per minute for 10 minutes. The steady state response was measured as a function of bi-directional oligonucleotide concentration. The competition data were analyzed assuming that thrombin and the solution phase oligonucleotide bind monovalently and that thrombin molecules bound to a solution phase oligonucleotide are prohibited from binding to the immobilized consensus aptamer.
In this analysis, the steady state response in the presence of oligonucleotide is proportional to the surface concentration of bound thrombin, and apparent equilibrium dissociation constants (Kd 's) were determined from the variation in SPR response as a function of bi-directional oligonucleotide concentration. (Data were fit to eqn 31 of Pisarchick, M. L. and Thompson, N. L., Biophys J. 58, 1235, to yield the Kd values. In this analysis, it was assumed that the concentration nucleic acid ligand free in solution is equal to the total nucleic acid ligand concentration). The values determined are shown below (SEQ ID NO:4): […]

[1] = test system: 3'-exonuclease (Phosphodiestase I; C. adamanteus Venon); format: in vitro ADME; conditions: 0.005 units exonuclease, 37° C., pH 8.8; for Approximate Half-Life: estimated by visual inspection of autoradiogram
Experimental: It is expected that the 3'--3' linked oligonucleotides will show similar resistance to 3'-exonucleases found in
The various bi-directional nucleic acid ligands to be tested were first labeled with radioactive (^32 p) phosphate as follows:
200 pmol of each oligonucleotide was incubated at 37° C. for 30 minutes in 20 μl of a solution containing 3.0 mM Tricine (pH 7.6), 50 mM TRIS-HCl (pH8), 10 mM MgCl2, 5 mM DTT, 1.0 μM γ-^32 P-ATP (3000 Ci/mmol, 10 mCi/mL), 10 units T4 polynucleotide kinase (New England Biolabs). This labeling reaction was then terminated by heating the mixture at 95° C. for 3 minutes.
To test the resistance of the ^32 P-labeled oligonucleotides to the 3' exonuclease, the following reaction mixtures were assembled: Each bi-directional nucleic acid ligand (25 pmole) was dissolved in 100 μl containing 55 mM Tris-HCl, 55 mM NaCl, 7.5 mM MgCl2 (all at pH8.8). To this mixture 0.005 units of the exonuclease (Phosphodiestase I; C. adamanteus Venon; Pharmacia Biotech, Inc.) was added and the sample was mixed and incubated at 37° C. Five μL aliquots of each reaction were removed at 3, 10, 30, 60, and 100 minutes. The reactions were quenched by placing the aliquots into 25 μL solutions containing 50% (w/v) urea, 20 mM Na2 EDTA, and 0.05% bromophenol blue/zylene cylanol and heating the sample to 90° C. for 2 minutes. The reaction products were analyzed by electrophoretic separation on a denaturing polyacrylamide gel and subsequent autoradiagraphy of the gel.
The half-lives of the various bi-directional nucleic acid ligands under these conditions were estimated by visual inspection of autoradiogram (SEQ ID NO:4): […]

bovine thrombin = assay: Clot time assay in platelet-poor porcine plasma with added thrombin; format: biochemical; conditions: room temperature, FIG. 2
Experimental: PPP was prepared by separating cells from […] by centrifugation of whole citrated porcine blood (Environmental Diagnostics Inc.). Approximately 0.5 ml of PPP was added to 12×75 mm polystyrene test tubes (FALCON, Becton Dickinson) and equilibrated to room temperature in a water bath for 15 minutes. Following equilibration, 25 μl of 250 μg/ml bovine thrombin (Sigma) in saline was added along with varying amounts of bi-directional nucleic acid ligand compounds prepared in Example 3 (specifically Compound #5 and Compound #9) in saline and sufficient saline diluent to bring the total volume to 0.6 ml. At this time 50 μl of 0.4M CaCl2 was added to initiate coagulation and the tubes were quickly capped. Tube contents were mixed on a laboratory inverting mixer and time of clotting noted for each tube type.

Substance	Kd (human α thrombin) [nM]	Approximate Half-Life [1] [min]	other results
5'-GGTTGGT-3' (DNA, backbone not given here) [a single copy of this sequence, reference compound]			thrombin affinity (in words) (human α thrombin; thrombin): does not have high affinity for thrombin
^3' GGTTGGTT^5' -p-^5' TTGGTTGG^3' [Compound 4]	25		
^5' GGTTGGTGTGGTTGG^3' [Compound 10, reference compound]	6	< 3	time to complete degradation by the 3'-exonuclease [1]: less than 3 minutes
^5' GGTTGGTG^3' -p-^3' TGGTTGG^5' [Compound 1]	224		
^5' GGTTGGTTG^3' -p-^3' TTGGTTGG^5' [Compound 3]	11	> 100	
^5' GGTTGGTT^3' (DNA, backbone not given here) [Compound 12, single oligonucleotide segment, control, reference compound]	1500		
^5' GGTTGGTT^3' -L1 -^3' TTGGTTGG^5' (DNA, backbone not given here; two strands joined 3'-3' by hexaethylene glycol phosphodiester linker, further chemistry not fully specified) [Compound 6, 3'-3' bi-directional oligonucleotide linked through hexaethylene glycol phosphodiester]	10		inhibition of exogenous thrombin in plasma (clot time) (bovine thrombin): inhibits thrombin in porcine plasma; thrombin affinity (in words) (human α thrombin; thrombin): high affinity for thrombin
^5' GGTTGGTT^3' -p-^3' TTGGTTGG^5' [Compound 2]	312		
^5' GGTTGGT^3' -L1 -^3' TGGTTGG^5' (DNA, backbone not given here; two strands joined 3'-3' through linker L1, further chemistry not fully specified) [Compound 5, 3'-3' bi-directional oligonucleotide linked through hexaethylene glycol phosphodiester]	9	30	inhibition of exogenous thrombin in plasma (clot time) (bovine thrombin): inhibition of exogenous thrombin in plasma; Ka (thrombin binding affinity) (human α thrombin; thrombin): > 10^7 M^-1
